One test deals with MEL-2 (melanoma). The test can be described thus: Cytotoxicity against cultured MEL-2 cells (SRB). Format: cell-based, human. The following applies: for IC50: Homo sapiens, MEL2, 72 h, read-out: ED50 MEL-2. On the procedure:
(§1) Cytotoxicity of the crude extracts and purified compounds was determined in a number of cultured human cancer cell lines. Table 1 sets forth the various types of cancer cells evaluated using Method A. The cells were cultured in appropriate media and under standard conditions. To maintain logarithmic growth, the media were changed 24 hours prior to cytotoxic assays. On the day of the assay, the cells were harvested by trypsinization, counted, diluted in media, and added to 96-well plates containing test compounds dissolved in DMSO. The final DMSO concentration was 0.05%.
(§2) In each of Methods A-C, the plates were incubated for three days. Following the incubation period, the cells were fixed and stained with sulforhodamine B (SRB) dye. The bound dye was liberated with Tris base, and the OD515 (optical density at 515 nm) was measured on an ELISA reader. The growth of the betulinic acid-treated cells was determined by the OD515 values, and the growth was compared to the OD515 values of […] control cells of Methods A-C. Dose response studies were performed to generate ED50 values. As used herein, the term OD515 is defined as optical density at 515 nm, and the term ED50 is defined as the concentration of a compound required to reduce cell number by 50%.

In the next test the test system is ZR-75-1 (breast). Description: Cytotoxicity against cultured ZR-75-1 cells (SRB). Format: cell-based, human. Conditions: for IC50: Homo sapiens, ZR-75-1, 72 h, read-out: ED50 ZR 75-1. On the procedure: as §1, §2
The next test concerns BC-1 (breast). The test can be described thus: Cytotoxicity against cultured BC-1 cells (SRB). Format: cell-based, human. The following applies: for IC50: Homo sapiens, BC1, 72 h, read-out: ED50 BC-1. On the procedure: as §1
In each of Methods A-C, the plates were incubated for three days. Following the incubation period, the cells were fixed and stained with sulforhodamine B (SRB) dye. The bound dye was liberated with Tris base, and the OD515 (optical density at 515 nm) was measured on an ELISA reader. […] Dose response studies were performed to generate ED50 values. As used herein, the term OD515 is defined as optical density at 515 nm, and the term ED50 is defined as the concentration of a compound required to reduce cell number by 50%.

In another test the test system is HT-1080 (sarcoma). The test can be described thus: Cytotoxicity against cultured HT-1080 cells (SRB). Format: cell-based, human. Conditions: Method A, sample dissolved in DMSO, three days incubation; for IC50: Homo sapiens, HT-1080, 72 h, read-out: ED50 HT-1080. On the procedure: as §1, §2
A further test relates to LNCaP (prostate). Description: Cytotoxicity against cultured LNCaP cells (SRB). Type of test: cell-based, human. The following applies: Method A, sample dissolved in DMSO; three days incubation. On the procedure: as §1, §2
The test system of the next test is COL-2 (colon). The test can be described thus: Cytotoxicity against cultured COL-2 cells (SRB). Format: cell-based, human. Conditions: for IC50: Homo sapiens, Col2, 72 h, read-out: ED50 COL-2. On the procedure:
as §1, §2

A further test has as its system U373 (glioma). The test can be described thus: Cytotoxicity against cultured U373 cells (SRB). Type of test: cell-based, human. The following applies: Method A, sample dissolved in DMSO; three days incubation. On the procedure: as §1, §2
For test [1], the system named is KB (human oral epidermoid carcinoma). Description: Cytotoxicity against cultured KB cells (SRB). The following applies: Method A, sample dissolved in DMSO; three days incubation. Format: cell-based. On the procedure: as §1, §2
The test system of the next test is LU-1 (lung). The test can be described thus: Cytotoxicity against cultured LU-1 cells (SRB). Format: cell-based, human. The following applies: Method A, sample dissolved in DMSO, three days incubation; for IC50: Homo sapiens, Lu1, 72 h, read-out: ED50 LU-1. On the procedure: as §1, §2
A further test relates to A431 (squamous cells). The test can be described thus: Cytotoxicity against cultured A431 cells (SRB). Type of test: cell-based, human. The following applies: Method A, sample dissolved in DMSO; three days incubation. On the procedure:
as §1, §2

In a further test the test system is a variety of tumors. The following applies: Phase II trials in Japan; cited from earlier work.
[2] abbreviates: Method A, sample dissolved in DMSO, three days incubation.

Values after ≈ are worked out from the molar mass of the structure shown. Like-named read-outs stand apart in the source and are kept apart here.

As to `CC[C@@]1(O)C(=O)OCc2c1cc1n(c2=O)Cc2cc3ccccc3nc2-1` [Camptothecin], the IC50 came out at 0.02 µg/mL (≈ 0.0574 µM) in the test with MEL-2 (melanoma) (setting [2]); 0.001 µg/mL (≈ 0.00287 µM) in the test with ZR-75-1 (breast) (setting [2]); 0.07 µg/mL (≈ 0.201 µM) with BC-1 (breast) (setting [2]); 0.01 µg/mL (≈ 0.0287 µM) in the test with HT-1080 (sarcoma); 0.005 µg/mL (≈ 0.0144 µM) with COL-2 (colon) (setting [2]). Also, the “ED50 LNCaP” value in the test with LNCaP (prostate) was 0.006 µg/mL (≈ 0.0172 µM).

For the compound `Cc1c2ccncc2c(C)c2c1[nH]c1ccccc12` [Ellipticine], the IC50 stood at 0.9 µg/mL (≈ 3.65 µM) in the test on MEL-2 (melanoma) (setting [2]); 0.9 µg/mL (≈ 3.65 µM) in the test with ZR-75-1 (breast) (setting [2]); 0.2 µg/mL (≈ 0.812 µM) with BC-1 (breast) (setting [2]); 1.8 µg/mL (≈ 7.31 µM) with HT-1080 (sarcoma); 0.02 µg/mL (≈ 0.0812 µM) in the test on LU-1 (lung); 0.3 µg/mL (≈ 1.22 µM) with COL-2 (colon) (setting [2]). The “ED50 U373” value with U373 (glioma) came out at 1.6 µg/mL (≈ 6.5 µM). Moreover, the “ED50 KB” value in test [1] amounted to 0.04 µg/mL (≈ 0.162 µM). Further, the “ED50 LNCaP” value with LNCaP (prostate) was 0.8 µg/mL (≈ 3.25 µM). For the same compound, in the test with A431 (squamous cells), the “ED50 A431” value is 0.5 µg/mL (≈ 2.03 µM).

As to `COC(=O)C[C@](O)(CCCC(C)(C)O)C(=O)O[C@@H]1C(OC)=C[C@]23CCCN2CCc2cc4c(cc2[C@H]13)OCO4` [Homoharringtonine], the IC50 in the test with MEL-2 (melanoma) (setting [2]) amounted to 0.04 µg/mL (≈ 0.0733 µM); with ZR-75-1 (breast) (setting [2]), 0.06 µg/mL (≈ 0.11 µM); with BC-1 (breast) (setting [2]), 0.03 µg/mL (≈ 0.055 µM); with HT-1080 (sarcoma), 0.01 µg/mL (≈ 0.0183 µM); with LU-1 (lung) it was 0.03 µg/mL (≈ 0.055 µM); in the test on COL-2 (colon) (setting [2]), 0.1 µg/mL (≈ 0.183 µM). Further, in the test on U373 (glioma), the “ED50 U373” value was 0.2 µg/mL (≈ 0.367 µM). Also, the “ED50 LNCaP” value in the test on LNCaP (prostate) is 0.03 µg/mL (≈ 0.055 µM). In addition, the “ED50 A431” value in the test with A431 (squamous cells) turned out to be 0.02 µg/mL (≈ 0.0367 µM).

Consider `COc1cc([C@@H]2c3cc4c(cc3[C@H](O)[C@H]3COC(=O)[C@H]23)OCO4)cc(OC)c1OC` [Podophyllotoxin], for which the IC50 in the test with MEL-2 (melanoma) is 0.003 µg/mL (≈ 0.00724 µM); with ZR-75-1 (breast), 0.4 µg/mL (≈ 0.965 µM); with BC-1 (breast), 0.03 µg/mL (≈ 0.0724 µM); in the test on COL-2 (colon) it was 0.005 µg/mL (≈ 0.0121 µM). Further, in the test on U373 (glioma), the “ED50 U373” value is 0.004 µg/mL (≈ 0.00965 µM). The “ED50 KB” value in [1] stood at 0.08 µg/mL (≈ 0.193 µM). Besides, in the test on LNCaP (prostate), the “ED50 LNCaP” value was determined as 0.04 µg/mL (≈ 0.0965 µM). For the same compound, the “ED50 A431” value in the test on A431 (squamous cells) turned out to be 0.03 µg/mL (≈ 0.0724 µM).

As to `CC(=O)O[C@H]1C(=O)[C@@]2(C)[C@H]([C@H](OC(=O)c3ccccc3)[C@]3(O)C[C@H](OC(=O)[C@H](O)[C@@H](NC(=O)c4ccccc4)c4ccccc4)C(C)=C1C3(C)C)[C@]1(OC(C)=O)CO[C@@H]1C[C@@H]2O` [Taxol, paclitaxel], the IC50 in the test with MEL-2 (melanoma) (setting [2]) is 0.06 µg/mL (≈ 0.0703 µM); in the test with ZR-75-1 (breast) (setting [2]) it was 0.02 µg/mL (≈ 0.0234 µM); in the test with BC-1 (breast) (setting [2]), 0.02 µg/mL (≈ 0.0234 µM); in the test on COL-2 (colon) (setting [2]), 0.02 µg/mL (≈ 0.0234 µM). For the same compound, the “ED50 U373” value in the test with U373 (glioma) was 0.008 µg/mL (≈ 0.00937 µM). Also, the “ED50 KB” value in test [1] amounted to 0.02 µg/mL (≈ 0.0234 µM). Further, the “ED50 LNCaP” value with LNCaP (prostate) was found to be 0.02 µg/mL (≈ 0.0234 µM).

For the compound `CC[C@]1(O)C[C@@H]2CN(CCc3c([nH]c4ccccc34)[C@@](C(=O)OC)(c3cc4c(cc3OC)N(C)[C@H]3[C@@](O)(C(=O)OC)[C@H](OC(C)=O)[C@]5(CC)C=CCN6CC[C@]43[C@@H]65)C2)C1` [Vinblastine], the IC50 with MEL-2 (melanoma) (setting [2]) stood at 0.01 µg/mL (≈ 0.0123 µM); in the test with ZR-75-1 (breast) (setting [2]), 0.3 µg/mL (≈ 0.37 µM); in the test with BC-1 (breast) (setting [2]), 0.06 µg/mL (≈ 0.074 µM); with HT-1080 (sarcoma), 0.02 µg/mL (≈ 0.0247 µM); with LU-1 (lung), 0.02 µg/mL (≈ 0.0247 µM); in the test with COL-2 (colon) (setting [2]), 0.01 µg/mL (≈ 0.0123 µM). The “ED50 U373” value in the test with U373 (glioma) turned out to be 1.1 µg/mL (≈ 1.36 µM). The “ED50 KB” value in [1] amounted to 0.04 µg/mL (≈ 0.0493 µM). For the same compound, in the test with LNCaP (prostate), the “ED50 LNCaP” value amounted to 0.1 µg/mL (≈ 0.123 µM). Also, the “ED50 A431” value with A431 (squamous cells) was 0.05 µg/mL (≈ 0.0617 µM).

As to `CC[C@]1(O)C[C@H]2CN(CCc3c([nH]c4ccccc34)[C@@](C(=O)OC)(c3cc4c(cc3OC)N(C=O)[C@H]3[C@@](O)(C(=O)OC)[C@H](OC(C)=O)[C@]5(CC)C=CCN6CC[C@]43[C@@H]65)C2)C1` [Vincristine], the IC50 in the test on MEL-2 (melanoma) (setting [2]) amounted to 0.02 µg/mL (≈ 0.0242 µM); with ZR-75-1 (breast) (setting [2]) it was 0.4 µg/mL (≈ 0.485 µM); in the test on BC-1 (breast) (setting [2]) it was 0.01 µg/mL (≈ 0.0121 µM); in the test with HT-1080 (sarcoma) it was 0.02 µg/mL (≈ 0.0242 µM); with LU-1 (lung), 0.05 µg/mL (≈ 0.0606 µM); in the test on COL-2 (colon) (setting [2]) it was 0.02 µg/mL (≈ 0.0242 µM). For the same compound, the “ED50 U373” value with U373 (glioma) came out at 0.06 µg/mL (≈ 0.0727 µM). For the same compound, the “ED50 LNCaP” value with LNCaP (prostate) was found to be 0.1 µg/mL (≈ 0.121 µM). The “ED50 A431” value in the test on A431 (squamous cells) was found to be 0.01 µg/mL (≈ 0.0121 µM).

For `CCc1c2c(nc3ccc(OC(=O)N4CCC(N5CCCCC5)CC4)cc13)-c1cc3c(c(=O)n1C2)COC(=O)[C@]3(O)CC` [irinotican], in the test with a variety of tumors, the “response rate, lymphoma” value is recorded as 0% and the “response rate, small cell lung” value was 50%.

Regarding Mithramycin A, the “ED50 MEL-2” value in the test on MEL-2 (melanoma) (setting [2]) was 1.2 µg/mL. Further, the “ED50 U373” value in the test on U373 (glioma) turned out to be 0.04 µg/mL. The “ED50 ZR 75-1” value in the test on ZR-75-1 (breast) (setting [2]) stood at 0.2 µg/mL. For the same compound, the “ED50 BC-1” value in the test on BC-1 (breast) (setting [2]) is 0.3 µg/mL. For the same compound, in the test with HT-1080 (sarcoma), the “ED50 HT-1080” value stood at 1.5 µg/mL. The “ED50 KB” value in test [1] was 0.09 µg/mL. In addition, the “ED50 LU-1” value in the test with LU-1 (lung) was determined as 0.2 µg/mL. Also, the “ED50 LNCaP” value in the test with LNCaP (prostate) came to 0.05 µg/mL. In the test on A431 (squamous cells), the “ED50 A431” value came to 0.09 µg/mL. Also, the “ED50 COL-2” value in the test on COL-2 (colon) (setting [2]) is 0.06 µg/mL.

The values are drawn from patent US6569842B2 (Board of Trustees of the University of Illinois, The, priority 2000, dated 2003).
